Test [1] deals with CD4, hMR, CCR1, D6 on U87MG. The test is described as follows: HIV receptor and chemokine co-receptor expression on U87MG by flow cytometry. The class given is cell-based, human. The method, then:
U87MG (A) and HFA (B) were left untreated or treated GM-CSF (50 ng/ml) or IFNγ (100 ng/ml) for 24 h. Expression of receptors on the x-axis was measured by flow cytometry. Isotype refers to mouse IgG. Data is representative of three experiments. Error bars represent standard deviation of the mean. (C). IFNγ up-regulates D6 on U87MG cells. U87MG were left untreated or treated with IFNγ. After 3 days, the cells were immunostained with anti-D6 or isotype antibodies. The first histogram (peak) represents isotype control; the dark shaded histogram represents untreated cultures, and the third histogram (peak) represents IFNγ-treated cultures. Data is typical of quadruplet experiments.
Because IFNγ was a potent cytokine in inducing HIV infection of astrocytes, it was determined whether IFNγ treatment modulated key HIV receptors CD4, human mannose receptor D6 and co-receptors (CCR1, CCR2, CCR3, CXCR4, and CCR5) for HIV infection. U87MG is human mannose receptor (hMR) […] (FIG. 5). However, hMR was not detected on HFA, which may be regulated by the differentiation stage of the HFA (FIG. 5 (B)). CD4 and hMR expression in both U87MG and HFA was not augmented by IFNγ or GM-CSF (FIG. 5(A)-(B)). […] HFA were positive for CXCR4 (12%), but its expression was not augmented by GM-CSF or IFNγ treatment (FIG. 5B). IFNγ was reported to enhance CXCR4 and CCR5 expression on simian adult astrocytes, which is in contrast to data on human fetal astrocytes highlighting a discrepancy between simian adult and human fetal astrocytes. […] Infection of U87MG and HFA with a T-tropic isolate (IIIB), while it was productive, was not enhanced by cytokine pre-treatment. This may be a consequence of the laboratory adapted HIV IIIB, therefore primary T-tropic or dual tropic strains may still be responsive to IFNγ pre-treatment of astrocytes. Recently, the CC chemokine receptor D6 was identified as a functional co-receptor for primary HIV infection of astrocytes.
In general terms: In flow cytometry, cells or beads pass a laser one at a time.

The test system of test [2] is IFNγ, GM-CSF and TNFγ receptors on U87MG. The test can be described thus: Cytokine receptor expression on U87MG by flow cytometry. The class given is cell-based, human. The conditions noted are these: 24-hour treatment. The method, then:
(§1) U87MG (A) or HFA (B) were left untreated or treated with GM-CSF (50 ng/ml), IFNγ100 ng/ml) or TNFγ100 ng/ml). […] Percent expression of GM-CSF receptor (R), IFNγR, and TNFγR was measured 24 hours post-stimulation by flow cytometry. Data is representative of three experiments. Error bars represent standard deviations of the mean.
(§2) Prior to evaluating if GM-CSF, IFNγ, and TNFγ can augment HIV replication of astrocytes, a question was whether U87MG and HFA express the respective cytokine receptors. U87MG and HFA were treated with or without the respective cytokine for 24 hours and cytokine receptor expression was evaluated by flow cytometry. Approximately 35% of U87MG expressed the IFNγ receptor and a low level of GM-CSF and TNFγ receptors (<8%; FIG. 3A). […] Untreated HFA expressed only low levels of IFNγ receptor (6%) and this expression was abrogated with IFNγ treatment. GM-CSF and TNFγ receptors were not expressed on HFA.

Another test deals with HIV-Bal in U87MG. The test can be described thus: Cytokine pre-stimulation and HIV-Bal replication in U87MG, p24 ELISA. The class given is cell-based. The note with it: 24 h pre-stimulation, 0-1000 ng/ml, p24 day 7. The method, then:
U87MG (A) and HFA (B) were pre-stimulated with increasing doses of either GM-CSF or IFNγ for 24 h followed by HIV-BAL infection for 24 hours. HIV replication was determined by measuring HIV p24 levels by ELISA seven days post-infection. The dotted line represents basal level of HIV infection of astrocytes without cytokine pre-treatment. Data is representative of three experiments performed in quadruplicate. Error bars represent standard deviations of the mean. Asterisks denote significant values (p<0.05) in comparison to untreated cultures as evaluated by analysis of variance.
To determine if pre-stimulation of astrocytes primes astrocytes, for productive HIV infection, U87MG and HFA were pre-treated for 24 hours with TNFγ, GM-CSF, or IFNγ at various concentrations (0-1000 ng/ml) then infected with HIV-Bal at 10 ng of HIV p24/1×10^6 cells for 24 hours. The cells were then washed extensively or trypsinized to remove bound virus and propagated in the presence of the respective cytokine concentration. HIV infection was monitored by p24 ELISA seven days post-infection. […]
IFN-γ Treatment and HIV Infection. […] HIV infection was monitored at day 7 postinfection by measuring p24 levels by conventional enzyme-linked immunosorbent assay (ELISA) (National Cancer Institute, Frederick, Md.).
For orientation: ELISA stands for enzyme-linked immunosorbent assay.

The test system of a further test is IFNγ receptor on HFA. The test can be described thus: Cytokine receptor expression on HFA by flow cytometry. The class given is cell-based, human. The conditions noted are these: untreated 6%. The method, then:
as §1, §2

Regarding “IFNγ: cytokine secreted by lymphocytes, activated microglia and astrocytes; used to prime astrocytes”, in test [1], the “CD4 and hMR expression” value is “not augmented”. For the same substance, the “Up-regulation of CCR1 expression” value in test [1] (24 h treatment) was 4 fold. The “Up-regulation of D6 expression” value in test [1] (3 days) stood at 6 fold. The “Down-regulation of IFNγ receptor expression” value in test [2] is on record as 2 fold. Also, the results for the “IFNγ receptor expression after treatment” value (in test [2] (untreated approximately 35%); in the test on IFNγ receptor on HFA) were “approximately 15%” and “abrogated”, respectively. For the same substance, in the test on HIV-Bal in U87MG, the “Maximal induction of HIV replication vs untreated/infected cultures” value was determined as 10 fold.

For the origin of these results see patent US20080193563A1, “HARNESSING WNT SIGNALING TO RESTRICT HIV REPLICATION” (priority 2006, published 2008).
